Patent US11053243B2 (Merck Sharp & Dohme Corp., priority 2009, dated 2021)

tested on: HCV genotype 1b replicon; assay: HCV replicon assay, genotype 1b; type: cell-based, hepatitis C virus; conditions: Hepatitis C virus; genotype 1b replicon cells, 24 to 72 hours incubation, luciferase activity
Procedure: The HCV replicons and NS5A inhibitory activity of the present compounds may be tested using assays known in the art. HCV inhibitors, such as those described in the Examples herein have activities in genotype 1b, 2a and 1a replicon assays of from about 1 pM to about 1 μM. The assay is performed by incubating a replicon harboring cell-line in the presence of inhibitor for a set period of time and measuring the effect of the inhibitor on HCV replicon replication either directly by quantifying replicon RNA level, or indirectly by measuring enzymatic activity of a co-encoded reporter enzyme such as luciferase or β-lactamase. By performing a series of such measurements at different inhibitor concentrations, the effective inhibitory concentration of the inhibitor (EC50 or EC90) is determined. See Jan M. Vrolijk et al., A replicons-based bioassay for the measurement of interferons in patients with chronic hepatitis C, 110 J. VIROLOGICAL METHODS 201 (2003). Such assays may also be run in an automated format for high through-put screening. See Paul Zuck et al., A cell-based β-lactamase reporter gene assay for the identification of inhibitors of hepatitis C virus replication, 334 ANALYTICAL BIOCHEMISTRY 344 (2004).
Measurement of inhibition by compounds was performed using the HCV replicon system. Several different replicons encoding different HCV genotypes or mutations were used. In addition, potency measurements were made using different formats of the replicon assay, including different ways of measurements and different plating formats. See Jan M. Vrolijk et al., A replicons-based bioassay for the measurement of interferons in patients with chronic hepatitis C, 110 J. VIROLOGICAL METHODS 201 (2003); Steven S. Carroll et al., Inhibition of Hepatitis C Virus RNA Replication by 2′-Modified Nucleoside Analogs, 278(14) J. BIOLOGICAL CHEMISTRY 11979 (2003). However, the underlying principles are common to all of these determinations, and are outlined below.
Stable neomycin phosphotransferase encoding replicon-harboring cell lines were used, so all cell lines were maintained under G418 selection prior to the assay. In some cases, the cell lines encoded a luciferase:Neor fusion and could be assayed either directly by determination of RNA copy number, or indirectly through measurement of the luciferase activity.
To initiate an assay, replicon cells were plated in the presence of a dilution series of test compound in the absence of G418. Typically, the assays were performed in a 96-well plate format for manual operation, or a 384-well plate in an automated assay. Replicon cells and compound were incubated for 24 to 72 hours. At the end of the assay, cells are washed free of media and compound and then lysed. Luciferase activity was measured using a conventional luciferase assay. EC50 determinations were calculated as a percent of a DMSO control by fitting the data to a four parameter fit function.
The activity table below provides representative data illustrating observed activity against genotype 1b.

SMILES | EC50 [pM]
CC(C)(C)OC(=O)N[C@H](C(=O)N1CCC[C@H]1C(=O)Nc1ccc(-c2nc3cc(NC(=O)[C@@H]4CCCN4C(=O)[C@@H](NC(=O)OC(C)(C)C)c4ccccc4)ccc3[nH]2)cc1)c1ccccc1 [Example 14, tert-butyl {(1S)-2-[(2S)-2-({4-[5-({[(2S)-1-{(2S)-2-[(tert-butoxycarbonyl)amino]-2-phenylacetyl}pyrrolidin-2-yl]carbonyl}amino)-1H-benzimidazol-2-yl]phenyl}carbamoyl)pyrrolidin-1-yl]-2-oxo-1-phenylethyl}carbamate] | 10000
CC(C)OC(=O)N[C@@H](C(=O)N1CCC[C@H]1C(=O)Nc1ccc(-c2[nH]c3ccc(NC(=O)[C@@H]4CCCN4C(=O)OC(C)(C)C)cc3c2F)cc1)c1ccccc1 [Example 144, tert-butyl (2S)-2-[(3-fluoro-2-{4-[({(2S)-1-[(2R)-2-phenyl-2-{[(propan-2-yloxy)carbonyl]amino}acetyl]pyrrolidin-2-yl}carbonyl)amino]phenyl}-1H-indol-5-yl)carbamoyl] pyrrolidine-1-carboxylate] | 36
CC(=O)N1CCC[C@H]1c1ncc(-c2ccc(-c3cc4cc(NC(=O)[C@@H]5CCCN5C(=O)[C@H](NC(=O)OC(C)(C)C)c5ccccc5)ccc4[nH]3)cc2)[nH]1 [Example 105, tert-butyl{(1R)-2-[(2S)-2-{[2-(4-{2-[(2S)-1-acetylpyrrolidin-2-yl]-1H-imidazol-5-yl}phenyl)-1H-indol-5-yl]carbamoyl}pyrrolidin-1-yl]-2-oxo-1-phenylethyl}carbamate] | 80
CC(C)(C)OC(=O)N[C@@H](C(=O)N1CCC[C@H]1C(=O)Nc1ccc2[nH]c(-c3ccc(N4CCCC4=O)cc3)c(F)c2c1)c1ccccc1 [Example 138, tert-butyl {(1R)-2-[(2S)-2-({3-fluoro-2-[4-(2-oxopyrrolidin-1-yl)phenyl]-1H-indol-5-yl}carbamoyl)pyrrolidin-1-yl]-2-oxo-1-phenylethyl}carbamate] | 8500
CC(C)(C)CC(=O)N[C@H](C(=O)N1CCC[C@H]1C(=O)Nc1ccc2c(c1)CCc1c-2[nH]c2ccccc12)c1ccccc1 [Example 96, N-(6,11-dihydro-5H-benzo[a]carbazol-3-yl)-1-{(2S)-2-[(3,3-dimethylbutanoyl)amino]-2-phenylacetyl}-L-prolinamide] | 15
CC(C)(C)OC(=O)N[C@@H](C(=O)N1CCC[C@H]1C(=O)Nc1ccc(-c2nc3cc(NC(=O)[C@@H]4CCCN4C(=O)[C@H](NC(=O)OC(C)(C)C)c4ccccc4)ccc3[nH]2)cc1)c1ccccc1 [Example 15, tert-butyl {(1R)-2-[(2S)-2-({4-[5-({[(2S)-1-{(2R)-2-[(tert-butoxycarbonyl)amino]-2-phenylacetyl}pyrrolidin-2-yl]carbonyl}amino)-1H-benzimidazol-2-yl]phenyl}carbamoyl)pyrrolidin-1-yl]-2-oxo-1-phenylethyl}carbamate] | 45
CC(C)(C)OC(=O)N[C@@H](C(=O)N1CCC[C@H]1C(=O)Nc1ccc2[nH]c(-c3ccc4[nH]c([C@@H]5CCCN5C(=O)[C@H](NC(=O)OC(C)(C)C)c5ccccc5)nc4c3)cc2c1)c1ccccc1 [Example 125, tert-butyl [(1R)-2-{(2S)-2-[(2-{2-[(2S)-1-{(2R)-2-[(tert-butoxycarbonyl)amino]-2-phenylacetyl}pyrrolidin-2-yl]-1H-benzimidazol-5-yl}-1H-indol-5-yl)carbamoyl]pyrrolidin-1-yl}-2-oxo-1-phenylethyl]carbamate] | 16
CC(C)(C)OC(=O)N[C@@H](C(=O)N1CCC[C@H]1C(=O)Nc1ccc2[nH]c(-c3ccc(-c4c[nH]cn4)cc3)cc2c1)c1ccccc1 [Example 102, tert-butyl {(1R)-2-[(2S)-2-({2-[4-(1H-imidazol-4-yl)phenyl]-1H-indol-5-yl}carbamoyl)pyrrolidin-1-yl]-2-oxo-1-phenylethyl}carbamate] | 8300
CN(C)[C@@H](C(=O)N1CCC[C@H]1C(=O)Nc1ccc2[nH]c(-c3ccc(-c4cnc([C@@H]5CCCN5C(=O)[C@@H](c5ccccc5)N(C)C)[nH]4)cc3)cc2c1)c1ccccc1 [Example 101, 1-[(2R)-2-(dimethylamino)-2-phenylacetyl]-N-{2-[4-(2-{(2S)-1-[(2R)-2-(dimethylamino)-2-phenylacetyl]pyrrolidin-2-yl}-1H-imidazol-5-yl)phenyl]-1H-indol-5-yl}-L-prolinamide] | 500
COC(=O)N[C@H](C(=O)N1CCC[C@H]1c1ncc(-c2ccc(-c3cc4cc(-c5cnc([C@@H]6CCCN6C(=O)[C@@H](NC(=O)OC)C(C)C)[nH]5)ccc4o3)cc2)[nH]1)C(C)C [Example 192, Methyl {(2S)-1-[(2S)-2-{5-[4-(5-{2-[(2S)-1-{(2S)-2-[(methoxy-carbonyl)amino]-3-methylbutanoyl}pyrrolidin-2-yl]-1H-imidazol-5-yl}-1-benzofuran-2-yl)phenyl]-1H-imidazol-2-yl}pyrrolidin-1-yl]-3-methyl-1-oxobutan-2-yl}carbamate] | 2
CC(=O)Nc1ccc(-c2cc3cc(NC(=O)[C@@H]4CCCN4C(=O)[C@@H](c4ccccc4)N4CCCC4)ccc3[nH]2)cc1 [Example 58, N-{2-[4-(acetylamino)phenyl]-1H-indol-5-yl}-1[(2R)-2-phenyl-2-(pyrrolidin-1-yl)acetyl]-L-prolinamide] | 970
COC(=O)N[C@H](C(=O)N1CCC[C@H]1C(=O)Nc1ccc2[nH]c(-c3ccc(-c4cnc([C@@H]5CCCN5C(=O)[C@@H](NC(=O)OC)C(C)C)[nH]4)cc3)cc2c1)C(C)C [Example 116, N-(methoxycarbonyl)-L-valyl-N-{2-[4-(2-{(2S)-1-[N-(methoxycarbonyl)-L-valyl]pyrrolidin-2-yl}-1H-imidazol-5-yl)phenyl]-1H-indol-5-yl}-L-prolinamide] | 65
CCN(CC)[C@@H](C(=O)N1CCC[C@H]1C(=O)Nc1ccc(-c2cc3cc(NC(=O)[C@@H]4CCCN4C(=O)[C@@H](c4ccccc4)N(CC)CC)ccc3o2)cc1)c1ccccc1 [Example 26, (2S)-1-[(2R)-2-(diethylamino)-2-phenylacetyl]-N-(4-{5-[({(2S)-1-[(2R)-2-(diethylamino)-2-phenylacetyl]pyrrolidin-2-yl}carbonyl)amino]-1-benzofuran-2-yl}phenyl)pyrrolidine-2-carboxamide] | 63
CC(=O)Nc1ccc(-c2[nH]c3ccc(NC(=O)[C@@H]4CCCN4C(=O)[C@@H](NC(=O)OC(C)(C)C)c4ccccc4)cc3c2Cl)cc1 [Example 131, tert-butyl {(1S)-2-[(2S)-2-({2-[4-(acetylamino)phenyl]-3-chloro-1H-indol-5-yl}carbamoyl)pyrrolidin-1-yl]-2-oxo-1-phenylethyl}carbamate] | 17000
CCN(CC)[C@@H](C(=O)N1CCC[C@H]1C(=O)Nc1ccc(-c2cc3cc(NC(=O)[C@@H]4CCCN4C(=O)[C@@H](c4ccccc4)N(CC)CC)ccc3[nH]2)cc1)c1ccccc1 [Example 62, (2S)-1-[(2R)-2-(diethylamino)-2-phenylacetyl]-N-(4-{5-[({(2S)-1-[(2R)-2-(diethylamino)-2-phenylacetyl]pyrrolidin-2-yl}carbonyl)amino]-1H-indol-2-yl}phenyl)pyrrolidine-2-carboxamide] | 67
CC(C)OC(=O)N[C@@H](C(=O)N1CCC[C@H]1C(=O)Nc1ccc2[nH]c(-c3ccc(-c4ncc([C@@H]5CCCN5C(=O)[C@H](NC(=O)OC(C)C)c5ccccc5)[nH]4)cc3)cc2c1)c1ccccc1 [Example 119, propan-2-yl [(1R)-2-oxo-1-phenyl-2-{(2S)-2-[2-(4-{5-[({(2S)-1-[(2R)-2-phenyl-2-{[(propan-2-yloxy)carbonyl]amino}acetyl]pyrrolidin-2-yl}carbonyl)amino]-1H-indol-2-yl}phenyl)-1H-imidazol-5-yl]pyrrolidin-1-yl}ethyl]carbamate] | 13
O=C(Nc1ccc(-c2cc3cc(NC(=O)[C@@H]4CCCN4C(=O)C(Cc4ccccc4)c4ccccc4)ccc3[nH]2)cc1)[C@@H]1CCCN1C(=O)C(Cc1ccccc1)c1ccccc1 (stereo partly drawn) [Example 49] | 72
N#Cc1c(-c2ccc(NC(=O)[C@@H]3CCCN3C(=O)Cc3ccccc3)cc2)[nH]c2ccc(NC(=O)[C@@H]3CCCN3C(=O)Cc3ccccc3)cc12 [Example 155, (2S)—N-{4-[3-cyano-5-({[(2S)-1-(phenylacetyl)pyrrolidin-2-yl]carbonyl}amino)-1H-indol-2-yl]phenyl}-1-(phenylacetyl)pyrrolidine-2-carboxamide] | 900
